Test results: patent publication EP1377579B1 (Aventis Pharmaceuticals Inc., priority 2000, dated 2002)
Like-named read-outs stand apart in the source and are kept apart here.

What was measured:
[1] = test system: HL-60; assay: In vitro proliferation assay (MTT), HL-60; assay type: cell-based; settings: Homo sapiens
How it was run: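 Overnight-recovered cultures (1000–2500 cells/well) were treated with compound for 3 days and then given MTT at 37 C for 2–4 hr. Dye was extracted with DMSO and read at 570 nm. IC50s were fitted to the absorbance-versus-concentration data.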

[2] = target: cdk1/cyclin B (Homo sapiens, UniProt P06493); assay: Cyclin-dependent kinase assay, cdk1/cyclin B; settings: CDK1 IC50, nM, Histone H1, 10 µM ATP
[3] = test system: HL-60 Human Leukemia; assay: HL-60 human leukemia xenograft in nude mice; assay type: in vivo; design: key: tumor volume = ½(a × b²) from caliper diameters, in mm^3
Procedure: (§1) Antitumor efficacy is assessed using two subcutaneous human tumor xenograft models. The studies are performed using conventional assay techniques. Briefly, HL-60 (leukemia, 5 x10^5 cells) and PC-3 (prostate, 5 x 10^6 cells) tumor cells are injected subcuateously into nude mice (Crl-CD1-Br-nu, Charles River Laboratory, Wilmington, MA). Dosing with compounds began when tumors reached 50 to 100 mm^3. The dose route/schedule for the test compounds is ip/qld (5x/wk). The test doses are set based on the maximum tolerated dose (MTD). […] The test doses for the efficacy studies are set at 1/3rd the MTD (low dose) and the MTD (high dose). The results are shown in Tables 4 and 5 (HL-60, leukemia) (PC-3, prostate cancer). The length of the treatment phase is dependent on the tumor growth rate for the two models. This treatment phase is typically about 3 weeks for the HL-60 model and about 5 weeks for the PC-3 model. […] Dosing with flavopiridol is for the same time frame as for the experimental compounds in both xenograft models. Tumor volume (twice weekly) and body weights (once weekly) are monitored throughout the course of the treatment phase of the experiment. Tumor sizes are measured by external caliper measurements of protruding tumor. Volumes are calculated using the following formula: volume =½ (a x b2), where b is the smaller of two perpendicular diameters.

[4] = test system: PC-3 Human Prostate Tumors; assay: PC-3 human prostate tumor xenograft in nude mice; assay type: in vivo; design: unit not given here
Procedure: as §1

[5] = in vivo; settings: male, Hsd:ICR (CD-1), mouse, plasma
[6] = Red blood cell binding, human whole blood; assay type: in vitro ADME; settings: 30 minutes at 37°C, 500 ng/ml
Procedure: Compounds, including one positive control, are assessed for red blood cell (RBC) uptake, using a modified procedure based on the protocol reported in Sun, J.X.S., et al. High-performance liquid chromatographic analysis, plasma protein binding and red blood cell partitioning of phenprobamate. Biopharmaceutics and Drug Disposition, 8 (1987) 341-351.
Briefly, RBC uptake is evaluated by comparison of the levels in spiked plasma (n=3) and plasma isolated from spiked whole blood (n=3). Compounds are incubated with human and mouse whole blood, respectively, for 30 minutes at 37°C using a nominal concentration of 500 ng/ml. Following centrifugation, the plasma is removed and submitted for analysis. Each compound is also spiked into blank plasma at a nominal concentration of 500 ng/ml, and submitted for analysis. Levels in the two plasma samples (Cp' and Cp in the equation below) and the blood hematocrit are used to determine the red blood cell to plasma ratio (Crbc/Cp). (Crbc)/(Cp) = (Cpʹ)/(Cp•H)-((1-H))/(H) [formula] In equation 1, Cp' is the level of drug in the spiked "blank" plasma, Cp is the level of drug in the plasma of spiked whole blood, and H is the hematocrit. The hematocrit values are determined as 0.4 for human whole blood and 0.41 for mouse whole blood. The samples are analyzed with ESI LC/MS, using positive ion detection with an internal standard.
The red blood cell to plasma ratio is determined for each compound using equation 1. Tables 6 and 7 summarize the respective mean Crbc/Cp values and standard deviations for mouse and human whole blood, respectively, in descending order based on the red blood cell to plasma ratio, where"*" denotes Positive Control, and "ND" denotes Not Determined. MDL 108552 is included as a positive control for red blood cell uptake. Table 6. Red Blood Cell to Plasma Ratio for compounds in mouse whole blood

[7] = Bioavailability experiment in mice given single intravenous cassette doses; settings: for Conc. (ng/ml) in plasma / Conc. in plasma: mice; for Conc. (ng/ml) in plasma: 24 h, BLQ = below assay quantification limit; for Cls: mice plasma, single intravenous cassette dose; for Conc. in plasma: single 15 mg/kg intravenous cassette dose (3 mg/kg/compound), Cassette #3, 24 h, BLQ = below assay quantification limit (approximately 1 ng/ml)
[8] = Cassette #1, single 18 mg/kg intravenous cassette dose
[9] = 3 mg/kg/compound (18 mg/kg Total Dose), Cassette #1
[10] = HL-60, read-out: HL-60 Leuk. (IC50 µM)
[11] = Cassette #2, single 18 mg/kg intravenous cassette dose
[12] = 3 mg/kg/compound (18 mg/kg Total Dose), Cassette #2
[13] = 3 mg/kg/compound (15 mg/kg Total Dose), Cassette #3

cdk1/cyclin B, sequence (P06493 whole entry): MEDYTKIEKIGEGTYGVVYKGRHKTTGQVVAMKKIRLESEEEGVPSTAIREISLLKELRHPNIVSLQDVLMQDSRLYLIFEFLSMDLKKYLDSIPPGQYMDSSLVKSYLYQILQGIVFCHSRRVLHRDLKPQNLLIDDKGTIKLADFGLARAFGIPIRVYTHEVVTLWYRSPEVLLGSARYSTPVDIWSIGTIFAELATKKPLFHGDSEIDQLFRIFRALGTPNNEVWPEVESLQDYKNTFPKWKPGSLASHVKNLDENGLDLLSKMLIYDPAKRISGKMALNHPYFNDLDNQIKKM
cdk1/cyclin B, sequence (P14635 whole entry partner): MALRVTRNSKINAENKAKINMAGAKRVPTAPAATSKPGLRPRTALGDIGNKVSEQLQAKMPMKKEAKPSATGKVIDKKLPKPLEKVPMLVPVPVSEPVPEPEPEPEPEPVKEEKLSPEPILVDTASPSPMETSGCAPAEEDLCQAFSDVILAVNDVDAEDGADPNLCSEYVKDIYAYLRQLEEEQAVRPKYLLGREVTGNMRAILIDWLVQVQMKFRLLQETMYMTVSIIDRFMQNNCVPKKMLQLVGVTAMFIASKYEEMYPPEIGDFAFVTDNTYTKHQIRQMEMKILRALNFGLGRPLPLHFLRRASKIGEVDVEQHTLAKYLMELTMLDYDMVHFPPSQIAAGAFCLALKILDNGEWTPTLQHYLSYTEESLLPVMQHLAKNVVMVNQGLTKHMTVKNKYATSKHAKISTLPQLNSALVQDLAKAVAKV

Compound | IC50 [2] | HL60 Mean Vol. ± SD ([3]; Table 5, dose 3 mg/kg ip) | HL60 Mean Vol. ± SD ([3]; Table 5, dose 10 mg/kg ip) | PC-3 Mean Vol. ± SD ([4]; Table 5, dose 3 mg/kg ip) | PC-3 Mean Vol. ± SD ([4]; Table 5, dose 10 mg/kg ip) | AUC(0-inf) ([5]; iv, 3 mg/kg) | Cmax ([5]; iv, 3 mg/kg) | half-life ([5]; iv, 3 mg/kg) | concentration at 0.083 h ([5]; iv, 18 mg/kg) | concentration at 0.25 h ([5]; iv, 18 mg/kg) | concentration at 0.5 h ([5]; iv, 18 mg/kg) | concentration at 1 h ([5]; iv, 18 mg/kg) | concentration at 3 h ([5]; iv, 18 mg/kg) | concentration at 6 h ([5]; iv, 18 mg/kg) | concentration at 8 h ([5]; iv, 18 mg/kg) | Mean Red Blood Cell to Plasma Ratio [6] | Conc. (ng/ml) in plasma [7, 8] | Cls [7, 9] | IC50 [1, 10] | HL60 Mean Vol. ± SD ([3]; Table 5, dose 1 mg/kg ip) | also measured
Cl.Cl.N[C@H]1CC[C@H](Nc2nc(NC3CCN(C(=O)c4cccc(C(F)(F)F)c4F)CC3)c3ncn(C4CCCC4)c3n2)CC1 [compound 12, trans-1-{4-[2-(4-Amino-cyclohexylamino)-9-cyclopentyl-9H-purin-6-ylamino]-piperidin-1-yl}-1-(2-fluoro-3-trifluoromethyl-phenyl)-methanone dihydrochloride] | 88 nM | 4948 ± 2803 | 2624 ± 2108 | 1063 ± 693 | 1107 ± 606 | 2550 ng·h/mL | 4110 ng/mL | 2.3 h | 4110 ± 754 ng/mL | 2360 ± 124 ng/mL | 1090 ± 36.1 ng/mL | 465 ± 34.6 ng/mL | 74.7 ± 17.4 ng/mL | 27 ± 2.7 ng/mL | 16.9 ± 1.4 ng/mL | 3.6 | BLQ | 19.6 mL/min/kg |  |  | IC50 ([1]; HL-60, MTT assay, value (SD, n) where given, read-out: HL-60 Leuk. (IC50 µM)): 0.16 µM
Cl.Cl.N[C@H]1CC[C@H](Nc2nc(NC3CCN(C(=O)Oc4ccc(Br)cc4)CC3)c3ncn(C4CCCC4)c3n2)CC1 [compound 81, trans-4-[2-(4-Amino-cyclohexylamino)-9-cyclopentyl-9H-purin-6-ylamino]-piperidine-1-carboxylic acid 4-bromo-phenyl ester dihydrochloride] | 16 nM | 5104 ± 4014 |  | 1007 ± 1120 |  | 660 ng·h/mL | 1770 ng/mL | 1.7 h | 1770 ± 384 ng/mL | 394 ± 142 ng/mL | 164 ± 47.2 ng/mL | 65.3 ± 10 ng/mL | 12.7 ± 3.4 ng/mL | 5.4 ± 1.5 ng/mL | 3.5 ± 0.9 ng/mL | 5.3 |  |  | 0.02 µM | 5802 ± 2996 | PC-3 Mean Vol. ± SD ([4]; Table 5, dose 1 mg/kg ip): 1258 ± 523; Conc. (ng/ml) in plasma [7, 11]: BLQ; Cls [7, 12]: 75.8 mL/min/kg
COC(=O)c1ccc(OC(=O)N2CCC(Nc3nc(N[C@H]4CC[C@H](N)CC4)nc4c3ncn4C3CCCC3)CC2)cc1.Cl.Cl [compound 83, trans-4-[2-(4-Amino-cyclohexylamino)-9-cyclopentyl-9H-purin-6-ylamino]-piperidine-1-carboxylic acid 4-methoxycarbonyl-phenyl ester dihydrochloride] | 19 nM | 5906 ± 2948 | 4057 ± 2599 | 899 ± 593 | 1426 ± 1131 | 449 ng·h/mL | 1520 ng/mL | 0.7 h | 1520 ± 612 ng/mL | 218 ± 92.8 ng/mL | 61.3 ± 32.9 ng/mL | 14.1 ng/mL | 4.1 ng/mL | 1.6 ng/mL | 6.3 ng/mL | 4.1 | BLQ | 111.4 mL/min/kg | 0.06 µM |  | 
COc1ccc(OC(=O)N2CCC(Nc3nc(N[C@H]4CC[C@H](N)CC4)nc4c3ncn4C3CCCC3)CC2)cc1.Cl.Cl [compound 84, trans-4-[2-(4-Amino-cyclohexylamino)-9-cyclopentyl-9H-purin-6-ylamino]-piperidine-1-carboxylic acid 4-methoxy-phenyl ester dihydrochloride] | 19 nM | 4886 ± 3467 |  | 1386 ± 752 |  | 965 ng·h/mL | 1510 ng/mL | 1.5 h | 1510 ± 377 ng/mL | 883 ± 140 ng/mL | 446 ± 79 ng/mL | 202 ± 37.3 ng/mL | 27 ± 2.4 ng/mL | 6.1 ± 0.8 ng/mL | 2.9 ± 0.2 ng/mL | 2.0 |  |  | 0.04 µM | 4790 ± 6912 | PC-3 Mean Vol. ± SD ([4]; Table 5, dose 1 mg/kg ip): 770 ± 567; Conc. (ng/ml) in plasma [7, 11]: BLQ; Cls [7, 12]: 51.8 mL/min/kg
Cl.Cl.N[C@H]1CC[C@H](Nc2nc(NC3CCN(C(=O)Oc4ccc(F)cc4)CC3)c3ncn(C4CCCC4)c3n2)CC1 [compound 87, trans-4-[2-(4-Amino-cyclohexylamino)-9-cyclopentyl-9H-purin-6-ylamino]-piperidine-1-carboxylic acid 4-fluoro-phenyl ester dihydrochloride] | 15 nM |  |  |  |  | 513 ng·h/mL | 1170 ng/mL | 1.6 h |  |  |  |  |  |  |  | 8.4 |  |  | 0.05 µM |  | HL60 Mean Vol. ± SD ([3]; Table 4, dose 1 mg/kg ip): 3718 ± 2715; HL60 Mean Vol. ± SD ([3]; Table 4, dose 3 mg/kg ip): 7096 ± 3079; PC-3 Mean Vol. ± SD ([4]; Table 4, dose 1 mg/kg ip): 3271 ± 2262; PC-3 Mean Vol. ± SD ([4]; Table 4, dose 3 mg/kg ip): 1396 ± 958; concentration at 0.083 h ([5]; intravenous, 3 mg/kg): 1170 ± 153 ng/mL; concentration at 0.25 h ([5]; intravenous, 3 mg/kg): 372 ± 35.9 ng/mL; concentration at 0.5 h ([5]; intravenous, 3 mg/kg): 141 ± 9.5 ng/mL; concentration at 1 h ([5]; intravenous, 3 mg/kg): 65 ± 14 ng/mL; concentration at 3 h ([5]; intravenous, 3 mg/kg): 19.2 ± 6 ng/mL; concentration at 6 h ([5]; intravenous, 3 mg/kg): 4.3 ± 0.7 ng/mL; concentration at 8 h ([5]; intravenous, 3 mg/kg): 3.2 ± 1.6 ng/mL; Cls [7, 13]: 97.4 mL/min/kg; Conc. in plasma [7]: BLQ^a
Cl.Cl.N[C@H]1CC[C@H](Nc2nc(NC3CCN(C(=O)Oc4ccc(Cl)cc4)CC3)c3ncn(C4CCCC4)c3n2)CC1 [compound 88, trans-4-[2-(4-Amino-cyclohexylamino)-9-cyclopentyl-9H-purin-6-ylamino]-piperidine-1-carboxylic acid 4-chloro-phenyl ester dihydrochloride] | 35 nM |  |  |  |  | 642 ng·h/mL | 1480 ng/mL | 1.9 h |  |  |  |  |  |  |  | 2.6 |  |  | 0.07 µM |  | HL60 Mean Vol. ± SD ([3]; Table 4, dose 1 mg/kg ip): 4415 ± 2740; HL60 Mean Vol. ± SD ([3]; Table 4, dose 3 mg/kg ip): 2624 ± 2108; PC-3 Mean Vol. ± SD ([4]; Table 4, dose 1 mg/kg ip): 1601 ± 1348; PC-3 Mean Vol. ± SD ([4]; Table 4, dose 3 mg/kg ip): 2278 ± 2110; concentration at 0.083 h ([5]; intravenous, 3 mg/kg): 1480 ± 272 ng/mL; concentration at 0.25 h ([5]; intravenous, 3 mg/kg): 421 ± 49.9 ng/mL; concentration at 0.5 h ([5]; intravenous, 3 mg/kg): 150 ± 5.9 ng/mL; concentration at 1 h ([5]; intravenous, 3 mg/kg): 74.6 ± 16.1 ng/mL; concentration at 3 h ([5]; intravenous, 3 mg/kg): 24.8 ± 7.4 ng/mL; concentration at 6 h ([5]; intravenous, 3 mg/kg): 8.9 ± 1.6 ng/mL; concentration at 8 h ([5]; intravenous, 3 mg/kg): 5.4 ± 2 ng/mL; Cls [7, 13]: 77.9 mL/min/kg; Conc. in plasma [7]: BLQ
